Columns and labels:
[1] = tested on: mouse colon cancer cells; assay: Transwell migration assay, mouse colon cancer cells; format: cell-based; conditions: 5 μM CMP pretreatment 30 min, 18 hours
Experimental: FIG. 10 illustrates Tumor migration inhibition by CMP. A549, H460 and mouse colon cancer cells were incubated with CMP at 37° C. for 30 min before adding to the top chamber of transwell membranes in 24-well dishes at a density of 2×10^4 cells/well. Data represented the mean±S.E. of triplicate samples from a representative experiment. The experiment was repeated at least three times with similar results
Cancer cell inhibition by CMP was performed in a 24-well Transwell chamber consisting of a cell culture insert (6.4 mm diameter, 8-1 μm pore polyethylene tetraphtalate membrane, [Becton Dickinson]) set in each well of a 24-well companion plate (Becton Dickinson). Briefly, 3×10^4 cancer cells were suspended and pretreated with 5 and 12.5 μM CMP for 30 min in a total volume of 200 μL. Cell suspensions were inoculated into the upper chamber of an insert, 5% fetal bovine serum (FBS) in medium as a chemoattractant was added to the plate well in the bottom chamber, and incubated for 18 hours in a humidified incubator at 37° C. with 5% CO2. The non-migratory cells on the upper membrane surface were removed with a cotton swab, and the migratory cells attached to the lower membrane surface were fixed with 4% paraformaldehyde and stained with 0.2% crystal violet. The number of migrated cells was counted in four randomly selected high power fields under microscope. […]

[2] = tested on: mite-specific IgE; assay: Serum mite-specific IgE by ELISA; format: in vivo, BALB/c mouse
Excerpt: (§1) FIG. 4 illustrates experimental design. All groups except control group were immunized with mite crude extract allergen on days 1 and 8, then mite crude extract allergen intratracheally on day 15 in all mite treated group, BALB/c mouse were divided into six groups (1) control group (PBS), (2) mites delivered intratracheally (mIT, mite on day 15) alone, (3) CMP intranasal (eIN, CMP on days 1 to 22) alone, (4) preventive-treatment group (eIN+mIT, CMP on days 1 to 14, mite on day 15) (5) therapy-treatment group (mIT+eIN, mite on day 15, CMP on days 15 to 22), and (6) preventive- and therapeutic-treatment group (eIN+mIT+eIN, CMP on days 1 to 22, mite on day 15).
FIG. 8 illustrates inhibitory effect of CMP on serum IgE level. […] Levels of serum Derp-specific IgE were measured by enzyme-linked immunosorbent assay (ELISA). Each result was expressed as the mean±S.D., n=4. *, P<0.05, **, P<0.01. […]
Mite protein (5 μg) was coated on the plated at 4° C. overnight. […] The levels of serum mite-specific IgE were measured by enzyme-linked immunosorbent assay (ELISA).
To further analyze therapeutic effect of CMP on mite sensitization, serum mite-specific IgE levels in mice were measured from all six treatment groups. […]

[3] = tested on: IL-5; assay: Cytokine ELISA of lung protein extract (IL-5); format: in vivo, BALB/c mouse; conditions: mIT+eIN, eIN+mIT+eIN and eIN+mIT groups
Excerpt: as §1
FIG. 9 illustrates inhibitory effect of CMP on lung protein extract. Lung protein extracts from different groups of mouse were assayed for the indicated cytokines. Data represent one of three independent experiments. Levels of CCL-11, IL-5, IL-13 and IL-17A/F levels in lung protein extracts from mouse from treatment groups were measured by Enzyme-linked immunosorbent assay (ELISA). Each result was expressed as the mean±S.D., n=4. **, P<0.01, ***, P<0.001. […]
Levels of cytokines from lung protein extract were measured by ELISA. […] The microplates were read at 450 nm with an ELISA reader (Thermo Labsystems, Waltham, Mass., USA). […]

NYRWRCKNQN (CMP)
decrease of migration activity [1]: 60%
serum mite-specific IgE level compared with mIT group ([2]; eIN+mIT+eIN group, day 23): much lower
serum mite-specific IgE reading of mIT group compared with CMP groups ([2]; mIT vs eIN+mIT, mIT+eIN and eIN+mIT+eIN groups, day 18): higher
IL-5 levels in lung protein extract compared with mIT group [3]: lower
